Test results: US20260373266A1, “PROTEIN DEGRADERS AND USES THEREOF” (KYMERA THERAPEUTICS, INC., priority 2022, published 2026)
Where two headings read alike, the source gives them in different places.

Biological target: T1, DCAF1 WD40 domain (residues 1077-1390) (Homo sapiens, UniProt Q9Y4B6)
T1 construct: DCAF1 WD40 domain (residues 1077-1390)
Experiment: DCAF1 binding assay by SPR (Biacore 8K+), DCAF1-3 KD
Conditions: 25 °C

T1 sequence (Q9Y4B6 1077-1390): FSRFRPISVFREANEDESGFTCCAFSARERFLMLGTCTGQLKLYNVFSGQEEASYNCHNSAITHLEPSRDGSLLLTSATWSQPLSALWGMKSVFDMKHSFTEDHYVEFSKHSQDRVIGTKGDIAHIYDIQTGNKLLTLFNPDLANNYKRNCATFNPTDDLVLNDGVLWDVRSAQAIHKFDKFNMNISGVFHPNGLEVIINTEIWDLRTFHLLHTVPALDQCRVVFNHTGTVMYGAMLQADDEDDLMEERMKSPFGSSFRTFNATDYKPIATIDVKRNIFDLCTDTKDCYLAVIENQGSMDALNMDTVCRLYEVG

Row | Kd (read-out: DCAF1-3 SPR (KD)) | Kd (DCAF1-3 SPR (KD)) | SMILES
1 | < 10 µM |  | COCCc1ccc(-c2[nH]ncc2C(=O)N[C@@H](CC(N)=O)c2cccc(Cl)c2)c(F)c1 [I-511]
2 | > 200 µM |  | Cc1ccccc1N1CCC[C@@H](Nc2cc(N3CCOCC3)ncn2)C1 [I-4]
3 | 10 to 100 µM |  | COCCOCC[C@@H]1CCCN(c2ccnc(N3CC[C@H]4[C@@H]3CCCN4c3cccc(F)c3)c2)C1 [I-714]
4 | > 200 µM |  | COC(=O)c1ccc(F)c(-c2n[nH]cc2C(=O)N[C@@H](CC(N)=O)c2cccc(Cl)c2)c1 [I-270]
5 | > 200 µM |  | CS(=O)(=O)Cc1ccc(F)c(-c2[nH]ncc2C(=O)N[C@@H](CC(N)=O)c2cccc(Cl)c2)c1 [I-246]
6 | < 10 µM |  | Cc1ccc(C(=O)c2[nH]cc(C(=O)N[C@@H](CC(N)=O)c3cccc(Cl)c3)c2-c2c(C)cccc2F)cc1 [I-625]
7 | 10 to 100 µM |  | Cc1cccc(-c2[nH]ncc2C(=O)N[C@@H](CC(N)=O)c2cccc(Cl)c2)c1 [I-102]
8 | > 200 µM |  | CS(=O)(=O)CN(c1cc(N2CCOCC2)ccn1)[C@@H]1CCCN(c2cccc(F)c2)C1 [I-258]
9 | > 200 µM |  | Fc1cccc([C@H]2CCC[C@@H](Nc3nccc(N4CCOCC4)n3)C2)c1 [I-181]
10 | < 10 µM |  | Cc1ccc(F)c(-c2[nH]ncc2C(=O)N[C@@H](CC(N)=O)c2cccc(Cl)c2)c1 [I-505]
11 | > 200 µM |  | Fc1cccc(N2CCC[C@@H](Cc3cc(N4CCOCC4)ccn3)C2)c1 [I-87]
12 | > 200 µM |  | Fc1cccc(N2CCC[C@@H](Nc3cc(C4=CCOCC4)[nH]n3)C2)c1 [I-609]
13 | > 200 µM |  | NC(=O)C[C@H](NC(=O)c1c[nH]nc1-c1cccc2nc[nH]c12)c1cccc(Cl)c1 [I-239]
14 | > 200 µM |  | NC(=O)C[C@H](NC(=O)c1c[nH]nc1-c1cc(C(=O)O)ccc1F)c1cccc(Cl)c1 [I-269]
15 | 10 to 100 µM |  | Fc1cccc(N2CCC[C@@H](Nc3cncc(N4CCOCC4)c3)C2)c1 [I-19]
16 | > 200 µM |  | Fc1cccc(N2CCC[C@H](Nc3cc(N4CCOCC4)ncn3)C2)c1 [I-313]
17 | > 200 µM |  | CO[C@@H]1C[C@@H](Nc2cc(N3CCOCC3)ccn2)CN(c2cccc(F)c2)C1 [I-512]
18 | > 200 µM |  | c1ccc2nc(N3CCC[C@@H](Nc4nccc(N5CCOCC5)n4)C3)ccc2c1 [I-37]
19 | < 10 µM |  | C=CC(=O)NCC1CCN(c2ccnc(N3CC[C@H]4[C@@H]3CCCN4c3cccc(F)c3)c2)CC1 [I-671]
20 | 100 to 200 µM |  | c1cnc2c(N3CCC[C@@H](Nc4nccc(N5CCOCC5)n4)C3)cccc2c1 [I-30]
21 | 10 to 100 µM |  | O=c1[nH]cc(C2CCOCC2)cc1N[C@@H]1CCCN(c2cccc(F)c2)C1 [I-646]

Row | Kd (read-out: DCAF1-3 SPR (KD)) | Kd (DCAF1-3 SPR (KD)) | SMILES
22 | < 10 µM |  | NC(=O)C[C@H](NC(=O)c1c[nH]nc1-c1cc(F)ccc1F)c1cccc(Cl)c1 [I-513]
23 | 100 to 200 µM |  | OC[C@@H]1CCN(c2cccc(F)c2)C[C@@H]1Nc1cc(N2CCCCC2)ccn1 [I-988]
24 | > 200 µM |  | N[C@@H](c1cncc(N2CCC[C@@H](Nc3cc(N4CCOCC4)ccn3)C2)c1)C1CC1 [I-485]
25 | > 200 µM |  | Fc1cccc(N2CCC[C@@H](N3CCCc4c(N5CCCCC5)ccnc43)C2)c1 [I-808]
26 | > 200 µM |  | NC(=O)C[C@H](NC(=O)c1cn[nH]c1-c1ccccc1F)c1ccccn1 [I-340]
27 | < 10 µM |  | Cc1c(F)ccc(F)c1-c1[nH]ncc1C(=O)N[C@@H](CC(=O)N1CC(N(C)C)C1)c1cccc(Cl)c1 [I-878]
28 | > 200 µM |  | Cc1ncc(N2CCOCC2)cc1N[C@@H]1CCCN(c2cccc(F)c2)C1 [I-527]
29 | < 10 µM |  | Cc1cccc(C(=O)c2[nH]cc(C(=O)N[C@@H](CC(N)=O)c3cccc(Cl)c3)c2-c2c(C)cccc2F)c1 [I-627]
30 | < 10 µM |  | NC(=O)C[C@H](NC(=O)c1cn[nH]c1-c1ccc(F)cc1)c1cccc(Cl)c1 [I-116]
31 | 10 to 100 µM |  | CC(C)c1cccc(-c2[nH]ncc2C(=O)N[C@@H](CC(N)=O)c2cccc(Cl)c2)c1F [I-563]
32 | < 10 µM |  | O[C@@H]1CCCN(c2ccnc(N3CC[C@@H]4[C@H]3CCCN4c3cccc(F)c3)c2)C1 [I-794]
33 | < 10 µM |  | Cc1sc2c(c1C)C(c1ccc(Cl)cc1)=N[C@@H](CC(=O)NCCOCCOCCOCCOCCOCC(=O)c1c(-c3c(F)ccc(F)c3C)c(C(=O)N[C@@H](CC(N)=O)c3cccc(Cl)c3)cn1C)c1nnc(C)n1-2 [I-912]
34 | < 10 µM |  | Cc1cccc(F)c1-c1c(C(=O)N[C@@H](CC(N)=O)c2cccc(Cl)c2)c[nH]c1C(=O)c1cccc(N2CCCCC2)c1 [I-700]
35 | 100 to 200 µM |  | Fc1cccc(N2C[C@@H](F)C[C@@H](Nc3cc(N4CCOCC4)ccn3)C2)c1 [I-541]
36 | > 200 µM |  | c1ccc(Cc2ccc(N3CCC[C@@H](Nc4cc(N5CCOCC5)ccn4)C3)nc2)cc1 [I-435]
37 | > 200 µM |  | c1ccc(COc2cccc(N3CCC[C@@H](Nc4cc(N5CCOCC5)ccn4)C3)c2)cc1 [I-690]
38 | < 10 µM |  | CN(CCN)C(=O)C[C@H](NC(=O)c1cn[nH]c1-c1ccccc1F)c1cccc(Cl)c1 [I-807]
39 | > 200 µM |  | O=C1C(Nc2cc(N3CCOCC3)ccn2)CCCN1c1cccc(F)c1 (stereo not drawn) [I-502]
40 | < 10 µM |  | Cc1c(F)ccc(F)c1-c1c(C(=O)N[C@@H](CC(N)=O)c2cccc(Cl)c2)c[nH]c1S(C)(=O)=O [I-882]
41 | > 200 µM |  | O=C(O)[C@@H]1[C@H](Nc2cc(N3CCOCC3)ccn2)CCCN1c1cccc(F)c1 [I-287]
42 | > 200 µM |  | O=C(O)CN(c1cc(N2CCOCC2)ccn1)[C@@H]1CCCN(c2cccc(F)c2)C1 [I-286]

Row | Kd (read-out: DCAF1-3 SPR (KD)) | Kd (DCAF1-3 SPR (KD)) | SMILES
43 | 10 to 100 µM |  | Cc1cccc(N2CCC[C@H]3[C@@H]2CCN3c2cc(N3CC4CC(C4)C3)ccn2)c1 [I-711]
44 | 10 to 100 µM |  | O[C@H]1CC[C@@H](Nc2cc(N3CCCCC3)ccn2)C[C@@H]1c1ccccc1 [I-984]
45 | > 200 µM |  | NC(=O)C[C@H](NC(=O)c1[nH][nH]c(=O)c1-c1ccccc1F)c1cccc(Cl)c1 [I-548]
46 | > 200 µM |  | NC(=O)C[C@H](NC(=O)c1cn[nH]c1-c1ccccc1F)c1ccc(C(N)=O)cc1 [I-354]
47 | > 200 µM |  | Fc1cccc(N2CCC[C@H](N3CCc4c(N5CC6CC(C6)C5)ccnc43)C2)c1 [I-840]
48 | > 200 µM |  | c1ccc2c(N3CCC[C@@H](Nc4cc(N5CCOCC5)ncn4)C3)cccc2c1 [I-388]
49 | > 200 µM |  | CCCCCCC[C@H]1CCCN(c2ccnc(N3CC[C@@H]4[C@H]3CCCN4c3cccc(F)c3)c2)C1 [I-727]
50 | 10 to 100 µM |  | COc1ncc2cc[nH]c2c1N1CCC[C@@H](Nc2cc(N3CCOCC3)ccn2)C1 [I-859]
51 | 10 to 100 µM |  | COCCc1ccc(F)c(-c2[nH]ncc2C(=O)N[C@@H](CC(N)=O)c2cccc(Cl)c2)c1 [I-250]
52 | 10 to 100 µM |  | Cc1cccc(-c2[nH]ncc2C(=O)N[C@@H](CC(N)=O)c2cccc(Cl)c2)c1F [I-515]
53 | 10 to 100 µM |  | NC(=O)C[C@H](NC(=O)c1c[nH]nc1-c1ccccn1)c1cccc(Cl)c1 [I-335]
54 | > 200 µM |  | c1cc2cc(N3CCC[C@@H](Nc4cc(N5CCOCC5)ncn4)C3)ccc2cn1 [I-401]
55 | < 10 µM |  | NC(=O)C[C@H](NC(=O)c1c[nH]c(C(N)=O)c1-c1ccccc1F)c1cccc(Cl)c1 [I-599]
56 | < 10 µM |  | Cc1sc2c(c1C)C(c1ccc(Cl)cc1)=N[C@@H](CC(=O)NCCOCCOCCOCCOCC(=O)c1[nH]cc(C(=O)N[C@@H](CC(N)=O)c3cccc(Cl)c3)c1-c1ccccc1F)c1nnc(C)n1-2 [I-896]
57 | < 10 µM |  | NC(=O)CCc1cccc(N2CCC[C@H]3[C@@H]2CCN3c2cc(N3CCCCC3)ccn2)c1 [I-881]
58 | > 200 µM |  | C[C@H](C(N)=O)[C@H](NC(=O)c1c[nH]nc1-c1ccccc1F)c1cccc(Cl)c1 [I-212]
59 | > 200 µM |  | Fc1cccc(N2CC(Nc3cc(N4CCOCC4)ccn3)C2)c1 [I-199]
60 | < 10 µM |  | Fc1cccc(N2CCC[C@@H](Nc3cc(N4CC5CCC(C5)C4)ccn3)C2)c1 [I-553]
61 | < 10 µM |  | NC(=O)C[C@H](NC(=O)c1c[nH]c(Nc2ccccc2)c1-c1c(F)cccc1F)c1cccc(Cl)c1 [I-629]
62 | 10 to 100 µM |  | NCC1CC[C@@H](Nc2cc(N3CCCCC3)ccn2)CN1c1cccc(F)c1 (stereo partly drawn) [I-1019]
63 | < 10 µM |  | NCCOCCOCCOCCOCCCc1ccc(C(=O)c2[nH]cc(C(=O)N[C@@H](CC(N)=O)c3cccc(Cl)c3)c2-c2c(F)ccc(F)c2F)cc1 [I-791]

Row | Kd (read-out: DCAF1-3 SPR (KD)) | Kd (DCAF1-3 SPR (KD)) | SMILES
64 | 10 to 100 µM |  | Fc1cccc(N2CCC[C@@H](Nc3cc(N4CCC5CCC4C5)ccn3)C2)c1 (stereo partly drawn) [I-640]
65 | > 200 µM |  | Fc1cccc(N2CCC[C@@H](Nc3cc([C@@H]4CCCCN4)ccn3)C2)c1 [I-124]
66 | 10 to 100 µM |  | NC(=O)C[C@H](NC(=O)c1cn[nH]c1-c1cccnc1)c1cccc(Cl)c1 [I-127]
67 | > 200 µM |  | O=C1[C@H](Nc2cc(N3CCOCC3)ccn2)CCCN1c1cccc(F)c1 [I-281]
68 | > 200 µM |  | C=CC(=O)N1CC[C@H](N(C)c2ccnc(N[C@@H]3CCCN(c4cccc(F)c4)C3)c2)C1 [I-477]
69 | > 200 µM |  | Fc1cccc([C@@H]2CCC[C@@H](Nc3cc(N4CCOCC4)ccn3)C2)c1 [I-184]
70 | > 200 µM |  | Fc1cccc(N2CCC3CCCc4ncc(N5CCOCC5)cc4NC3C2)c1 (stereo not drawn) [I-228]
71 | > 200 µM |  | Cc1cc(Cl)cc([C@H](CC(N)=O)NC(=O)c2cn[nH]c2-c2c(C)cccc2F)c1 [I-737]
72 | > 200 µM |  | NC(=O)C[C@H](NC(=O)c1[nH]nc(Nc2ccncn2)c1-c1ccccc1F)c1cccc(Cl)c1 [I-168]
73 | 10 to 100 µM |  | NC(=O)C[C@H](NC(=O)c1cn[nH]c1C1CCOCC1)c1ccccc1 [I-501]
74 | 10 to 100 µM |  | c1ccc([C@H]2CCC[C@@H](Nc3cc(N4CCCCC4)ccn3)C2)cc1 [I-754]
75 | > 200 µM |  | Fc1cccc(N2CC(Nc3cc(N4CCOCC4)ncn3)C2)c1 [I-218]
76 | < 10 µM |  | O[C@H]1CCCN(c2ccnc(N3CC[C@@H]4[C@H]3CCCN4c3cccc(F)c3)c2)C1 [I-800]
77 | > 200 µM |  | OCCC[C@H]1C[C@H]2[C@H](CCCN2c2cccc(F)c2)N1c1cc(N2CCCCC2)ccn1 [I-835]
78 | > 200 µM |  | CN1CCN(c2cc(N[C@@H]3CCCN(c4cccc(F)c4)C3)ncn2)CC1 [I-374]
79 | 10 to 100 µM |  | NC(=O)C[C@@H](NC(=O)c1cn[nH]c1-c1ncccc1F)c1cccc(Cl)c1 [I-529]
80 | 100 to 200 µM |  | Fc1cccc(N2CCC[C@@H](Nc3nccc(N4CCCCC4)n3)C2)c1 [I-319]
81 |  | < 10 µM | NC(=O)OCc1cc(F)cc(N2CCC[C@H]3[C@@H]2CCN3c2cc(N3CC4CC(C4)C3)ccn2)c1 [I-1035, 3-((3aS,7aS)-1-(4-(3-azabicyclo[3.1.1]heptan-3-yl)pyridin-2-yl)octahydro-4H-pyrrolo[3,2-b]pyridin-4-yl)-5-fluorobenzyl carbamate]
